Test results taken from patent US20040023994A1 (priority 2002, published 2004).
Marks after values point to notes of the source that are not given here.

Tests used:
[1] = tested on: Heterozygous nude CD-1 male mice; assay: Liver function (AST, ALT in plasma) and liver histopathology in treated mice
Method: (§1) Heterozygous nude CD-1 male mice were treated (i.p.) with multiple doses consisting of either one dose daily for three consecutive days (cis-AVTP or trans-AVTG, 21.25 μmol/kg, 6-TG, 8.5 or 21.25 μmol/kg, or vehicle; one cycle), or one dose daily for three consecutive days, repeated again five days later (cis-AVTP, trans-AVTG or 6-TG, 8.5 or 21.25 μmol/kg, or vehicle; two cycles).
(§2) The mice were sacrificed 24 h after the last treatment. Urine was collected for 24 h before initiation of treatment and every 24 h thereafter until the mice were sacrificed. Blood was collected by cardiac puncture and blood cells counted. Sections of liver, kidney, intestines, stomach and sternum were stained with hematoxylin and eosin and subjected to pathological analysis. Bone marrow smears were prepared for assessment of bone marrow cellularity. Liver function was evaluated by measuring alanine aminotransferase-(ALT) and aspartate aminotransferase (AST) activities in plasma. Kidney function was evaluated by measuring blood urea nitrogen in plasma and γ-glutamyltransferase activity and glucose levels in urine.

[2] = tested on: Heterozygous nude CD-1 male mice; assay: Intestinal pathological analysis (crypt epithelial cell apoptosis) in treated mice; settings: multiple doses
Method: as §1, §2

OVCAR-3 = settings: OVCAR-3, Ovarian, NCI database, cited from earlier work
HCT-116 = settings: HCT-116, Colon, NCI database, cited from earlier work
HT29 = settings: HT29, Colon, NCI database, cited from earlier work
ACHN = settings: Renal, NCI database, cited from earlier work
SK-MEL-28 = settings: SK-MEL-28, Melanoma, NCI database, cited from earlier work
SK-MEL-5 = settings: SK-MEL-5, Melanoma, NCI database, cited from earlier work
HOP-62 = settings: HOP-62, Non-Small Cell Lung, NCI database, cited from earlier work
HOP-92 = settings: HOP-92, Non-Small Cell Lung, NCI database, cited from earlier work
NCI-H522 = settings: NCI-H522, Non-Small Cell Lung, NCI database, cited from earlier work
SF-268 = settings: SF-268, CNS, NCI database, cited from earlier work
SNB-75 = settings: SNB-75, CNS, NCI database, cited from earlier work
[3] = read-out: LC50 (the source's name)

Nc1nc2nc[nH]c2c(=S)[nH]1 [6-TG, 6-thioguanine]
ALT ([1]; 8.5 μmol/kg, one cycle): 9.2 ± 3.2 SF U/ml
AST ([1]; 8.5 μmol/kg, one cycle): 43.5 ± 24.8 SF U/ml
ALT ([1]; 8.5 μmol/kg, two cycles): 10.5 ± 6.6^a SF U/ml
AST ([1]; 8.5 μmol/kg, two cycles): 37.9 ± 12.2^a SF U/ml
ALT ([1]; 21.25 μmol/kg, one cycle): 15.0 ± 2.5^b SF U/ml
AST ([1]; 21.25 μmol/kg, one cycle): 44.4 ± 5.4^c SF U/ml
ALT ([1]; 21.25 μmol/kg, two cycles): 12.6 ± 4.8^a SF U/ml
AST ([1]; 21.25 μmol/kg, two cycles): 68.2 ± 54.5^a SF U/ml
crypt epithelial apoptosis, large intestines [2]: considerable crypt cell apoptosis
crypt epithelial cell apoptosis, small intestines [2]: extensively
GI50 (OVCAR-3): 0.71 µM
TGI (OVCAR-3): 6.68 µM
CC50 (OVCAR-3; [3]): > 100 µM
GI50 (HCT-116): 0.53 µM
TGI (HCT-116): 16.2 µM
CC50 (HCT-116; [3]): > 100 µM
GI50 (HT29): 1.13 µM
TGI (HT29): >100 µM
CC50 (HT29; [3]): > 100 µM
CC50 (ACHN; [3]): > 100 µM
GI50 (ACHN): 1.93 µM
TGI (ACHN): >100 µM
GI50 (SK-MEL-28): 8.91 µM
TGI (SK-MEL-28): >100 µM
CC50 (SK-MEL-28; [3]): > 100 µM
GI50 (SK-MEL-5): 3.53 µM
TGI (SK-MEL-5): 16.4 µM
CC50 (SK-MEL-5; [3]): 88.1 µM
GI50 (HOP-62): 0.73 µM
TGI (HOP-62): 28.4 µM
CC50 (HOP-62; [3]): > 100 µM
GI50 (HOP-92): 0.73 µM
TGI (HOP-92): 24.0 µM
CC50 (HOP-92; [3]): > 100 µM
GI50 (NCI-H522): 0.91 µM
TGI (NCI-H522): 6.28 µM
CC50 (NCI-H522; [3]): > 100 µM
GI50 (SF-268): 1.14 µM
TGI (SF-268): >100 µM
CC50 (SF-268; [3]): > 100 µM
GI50 (SNB-75): 1.42 µM
TGI (SNB-75): 41.3 µM
CC50 (SNB-75; [3]): > 100 µM
